In US20160038468A1 (priority 2013, published 2016):
Converted amounts (≈) assume the structure as drawn. Where two headings read alike, the source gives them in different places.

Columns and labels:
[1] = test system: Finegoldia magna; assay: Agar dilution MIC (CLSI), Finegoldia magna vaginal isolates; type: cell-based; settings: for MIC: read-out: Minimal Inhibitory Concentration (MIC); for Number of strains with indicated MIC: 20 samples
[2] = test system: Prevotella timonensis; assay: Agar dilution MIC (CLSI), Prevotella timonensis vaginal isolates; type: cell-based; settings: for MIC: read-out: Minimal Inhibitory Concentration (MIC); for Number of strains with indicated MIC: 33 samples
[3] = Hoylesella timonensis, # tested 33

Question: How did the “MIC Range” value ([1]; # tested 20) turn out when `CO[C@H]1/C=C/O[C@@]2(C)Oc3c(C)c(O)c4c(O)c(c5c(nc6cc(C)ccn65)c4c3C2=O)NC(=O)/C(C)=C\C=C\[C@H](C)[C@H](O)[C@@H](C)[C@@H](O)[C@@H](C)[C@H](OC(C)=O)[C@@H]1C` [Rifaximin] was run?
Answer: Its value is 0.125 to 16 µg/mL.

Question: And the MIC ([1]; Finegoldia magna, isolate 301303V D)?
Answer: The MIC was 4 µg/mL (≈ 5.09 µM).

Question: And the MIC ([1]; Finegoldia magna, isolate 601205V 39)?
Answer: The MIC was 4 µg/mL (≈ 5.09 µM).

Question: And the MIC ([1]; Finegoldia magna, isolate 601214V F)?
Answer: Its MIC is 8 µg/mL (≈ 10.2 µM).

Question: And the MIC ([1]; Finegoldia magna, isolate 601275V c)?
Answer: The MIC was 0.125 µg/mL (≈ 0.159 µM).

Question: And the MIC ([1]; Finegoldia magna, isolate 601276V 23)?
Answer: The MIC was 4 µg/mL (≈ 5.09 µM).

Question: And the MIC ([1]; Finegoldia magna, isolate 601283V 14)?
Answer: Its MIC is 4 µg/mL (≈ 5.09 µM).

Question: And the MIC ([1]; Finegoldia magna, isolate 601293V 27)?
Answer: The MIC was 4 µg/mL (≈ 5.09 µM).

Question: And the MIC ([1]; Finegoldia magna, isolate 601295V 25)?
Answer: The MIC was 4 µg/mL (≈ 5.09 µM).

Question: What about the MIC ([1]; Finegoldia magna, isolate 601298V 30) of the same compound?
Answer: Its MIC is 4 µg/mL (≈ 5.09 µM).

Question: And the MIC ([1]; Finegoldia magna, isolate 601308V 24)?
Answer: Its MIC is 2 µg/mL (≈ 2.54 µM).

Question: And the MIC ([1]; Finegoldia magna, isolate 601315V 17)?
Answer: Its MIC is 8 µg/mL (≈ 10.2 µM).

Question: And the MIC ([1]; Finegoldia magna, isolate 601315V 17A)?
Answer: Its MIC is 8 µg/mL (≈ 10.2 µM).

Question: What about the MIC ([1]; Finegoldia magna, isolate 601320V 24) of the same compound?
Answer: The MIC was 16 µg/mL (≈ 20.4 µM).

Question: What about the MIC ([1]; Finegoldia magna, isolate 601323V K) of the same compound?
Answer: Its MIC is 4 µg/mL (≈ 5.09 µM).

Question: And the MIC ([1]; Finegoldia magna, isolate 601330V c)?
Answer: The MIC was 16 µg/mL (≈ 20.4 µM).

Question: What about the MIC ([1]; Finegoldia magna, isolate 601335V c1) of the same compound?
Answer: Its MIC is 4 µg/mL (≈ 5.09 µM).

Question: And the MIC ([1]; Finegoldia magna, isolate 601340V 27)?
Answer: Its MIC is 8 µg/mL (≈ 10.2 µM).

Question: And the MIC ([1]; Finegoldia magna, isolate 601359V c)?
Answer: The MIC was 2 µg/mL (≈ 2.54 µM).

Question: What about the MIC ([1]; Finegoldia magna, isolate 601363V 6) of the same compound?
Answer: Its MIC is 0.25 µg/mL (≈ 0.318 µM).

Question: What about the MIC ([1]; Finegoldia magna, isolate 601367V c) of the same compound?
Answer: The MIC was 16 µg/mL (≈ 20.4 µM).

Question: What about the MIC50 ([1]; Finegoldia magna, # tested 20) of the same compound?
Answer: Its MIC50 is 4 µg/mL (≈ 5.09 µM).

Question: What about the MIC90 ([1]; Finegoldia magna, # tested 20) of the same compound?
Answer: Its MIC90 is 16 µg/mL (≈ 20.4 µM).

Question: What about the “Number of strains with indicated MIC” value ([1]; MIC 8 μg/ml) of the same compound?
Answer: The value was 4.

Question: And the “Number of strains with indicated MIC” value ([1]; MIC 16 μg/ml)?
Answer: The value was 3.

Question: What about the “Number of strains with indicated MIC” value ([1]; MIC […]) of the same compound?
Answer: The value was 1.

Question: And the Susceptible ([1]; number (%) of isolates, # tested 20)?
Answer: Its Susceptible is 20 (100) μg/ml.

Question: What about the “MIC Range” value ([2]; # tested 33) of the same compound?
Answer: Its value is 0.00375 to 0.06 µg/mL.

Question: What about the MIC ([2]; Hoylesella timonensis, isolate 301212 10) of the same compound?
Answer: The MIC was 0.00375 µg/mL (≈ 0.00477 µM).

Question: And the MIC ([2]; Hoylesella timonensis, isolate 601080 5)?
Answer: Its MIC is 0.0075 µg/mL (≈ 0.00954 µM).

Question: What about the MIC ([2]; Hoylesella timonensis, isolate 601088 15) of the same compound?
Answer: The MIC was 0.015 µg/mL (≈ 0.0191 µM).

Question: And the MIC ([2]; Hoylesella timonensis, isolate 601093 24)?
Answer: The MIC was 0.015 µg/mL (≈ 0.0191 µM).

Question: What about the MIC ([2]; Hoylesella timonensis, isolate 601097 S) of the same compound?
Answer: Its MIC is 0.015 µg/mL (≈ 0.0191 µM).

Question: What about the MIC ([2]; Hoylesella timonensis, isolate 601098 B) of the same compound?
Answer: Its MIC is 0.015 µg/mL (≈ 0.0191 µM).

Question: And the MIC ([2]; Hoylesella timonensis, isolate 601157 19)?
Answer: The MIC was 0.015 µg/mL (≈ 0.0191 µM).

Question: What about the MIC ([2]; Hoylesella timonensis, isolate 601167 13) of the same compound?
Answer: The MIC was 0.06 µg/mL (≈ 0.0763 µM).

Question: What about the MIC ([2]; Hoylesella timonensis, isolate 601170 13) of the same compound?
Answer: Its MIC is 0.015 µg/mL (≈ 0.0191 µM).

Question: And the MIC ([2]; Hoylesella timonensis, isolate 601175 J)?
Answer: The MIC was 0.015 µg/mL (≈ 0.0191 µM).

Question: And the MIC ([2]; Hoylesella timonensis, isolate 601178 19)?
Answer: The MIC was 0.015 µg/mL (≈ 0.0191 µM).

Question: What about the MIC ([2]; Hoylesella timonensis, isolate 601194 9B) of the same compound?
Answer: The MIC was 0.0075 µg/mL (≈ 0.00954 µM).

Question: And the MIC ([2]; Hoylesella timonensis, isolate 601214 A)?
Answer: The MIC was 0.015 µg/mL (≈ 0.0191 µM).

Question: What about the MIC ([2]; Hoylesella timonensis, isolate 601226 C) of the same compound?
Answer: Its MIC is 0.015 µg/mL (≈ 0.0191 µM).

Question: And the MIC ([2]; Hoylesella timonensis, isolate 601234 B)?
Answer: Its MIC is 0.015 µg/mL (≈ 0.0191 µM).

Question: And the MIC ([2]; Hoylesella timonensis, isolate 601245 16)?
Answer: The MIC was 0.015 µg/mL (≈ 0.0191 µM).

Question: And the MIC ([2]; Hoylesella timonensis, isolate 601252 B)?
Answer: Its MIC is 0.015 µg/mL (≈ 0.0191 µM).

Question: What about the MIC ([2]; Hoylesella timonensis, isolate 601255 17) of the same compound?
Answer: Its MIC is 0.015 µg/mL (≈ 0.0191 µM).

Question: And the MIC ([2]; Hoylesella timonensis, isolate 601266 18)?
Answer: Its MIC is 0.015 µg/mL (≈ 0.0191 µM).

Question: What about the MIC ([2]; Hoylesella timonensis, isolate 601278 12) of the same compound?
Answer: Its MIC is 0.015 µg/mL (≈ 0.0191 µM).

Question: What about the MIC ([2]; Hoylesella timonensis, isolate 601281 22) of the same compound?
Answer: Its MIC is 0.015 µg/mL (≈ 0.0191 µM).

Question: What about the MIC ([2]; Hoylesella timonensis, isolate 601287 H) of the same compound?
Answer: Its MIC is 0.015 µg/mL (≈ 0.0191 µM).

Question: What about the MIC ([2]; Hoylesella timonensis, isolate 601293 13) of the same compound?
Answer: Its MIC is 0.015 µg/mL (≈ 0.0191 µM).

Question: What about the MIC ([2]; Hoylesella timonensis, isolate 601311 B) of the same compound?
Answer: Its MIC is 0.015 µg/mL (≈ 0.0191 µM).

Question: What about the MIC ([2]; Hoylesella timonensis, isolate 601367 E) of the same compound?
Answer: Its MIC is 0.015 µg/mL (≈ 0.0191 µM).

Question: And the MIC ([2]; Hoylesella timonensis, isolate 601370 13)?
Answer: Its MIC is 0.03 µg/mL (≈ 0.0382 µM).

Question: What about the MIC ([2]; Hoylesella timonensis, isolate 601388 S) of the same compound?
Answer: The MIC was 0.015 µg/mL (≈ 0.0191 µM).

Question: And the MIC ([2]; Hoylesella timonensis, isolate 601401 J)?
Answer: Its MIC is 0.015 µg/mL (≈ 0.0191 µM).

Question: What about the MIC ([2]; Hoylesella timonensis, isolate 601411 S) of the same compound?
Answer: Its MIC is 0.015 µg/mL (≈ 0.0191 µM).

Question: What about the MIC ([2]; Hoylesella timonensis, isolate 601414 O) of the same compound?
Answer: The MIC was 0.03 µg/mL (≈ 0.0382 µM).

Question: What about the MIC ([2]; Hoylesella timonensis, isolate 601422 39) of the same compound?
Answer: The MIC was 0.015 µg/mL (≈ 0.0191 µM).

Question: And the MIC ([2]; Hoylesella timonensis, isolate 601429 11)?
Answer: The MIC was 0.015 µg/mL (≈ 0.0191 µM).

Question: And the MIC ([2]; Hoylesella timonensis, isolate 601459 21)?
Answer: Its MIC is 0.015 µg/mL (≈ 0.0191 µM).

Question: And the MIC50 [2, 3]?
Answer: Its MIC50 is 0.015 µg/mL (≈ 0.0191 µM).

Question: And the MIC90 [2, 3]?
Answer: Its MIC90 is 0.015 µg/mL (≈ 0.0191 µM).

Question: And the “Number of strains with indicated MIC” value ([2]; MIC 0.00375 μg/ml)?
Answer: The value was 1.

Question: And the “Number of strains with indicated MIC” value ([2]; MIC 0.0075 μg/ml)?
Answer: Its value is 2.

Question: And the “Number of strains with indicated MIC” value ([2]; MIC 0.015 μg/ml)?
Answer: The value was 27.
